From patent US10137171B2, “Methods of treatment using a pentapeptide derived from the C-Terminus of Glucagon-Like Peptide 1 (GLP-1)” (The General Hospital Corporation, priority 2011, dated 2018)
Where no end group is shown, it is not given here.

How the values were obtained:
[1] = system: insulin-resistant isolated mouse hepatocytes; experiment: Glucose production assay in isolated hepatocytes; assay type: cell-based; settings: stimulated by cAMP/dexamethasone/lactate; basal glucose production not suppressed
Text: FIG. 8 is a bar graph showing suppression of glucose production by the pentapeptide GLP-1(32-36)amide (LVKGRamide (SEQ ID NO:1)) in insulin-resistant hepatocytes. Mice (male, C57bl/6) from 12-19 weeks of age were fasted overnight (16 hrs) and primary hepatocytes were isolated using a collagen and perfusion gradient purification. Cells were first seeded using a Dulbecco's modified Eagle's medium (DMEM) supplemented with 10% FBS, 1 g/L glucose, 2 mmol/1 sodium pyruvate, 1 micromol/L dexamethasone, and 0.1 micromol/L insulin, and later maintained in DMEM with 0.2% BSA, 1 g/L glucose, 0.1 micromol/L dexamethasone, and lnmol/L insulin. […] The readings were then normalized to total protein content determined from whole-cell lysates. […]
Primary hepatocytes (2×10^5 cells per well in twelve-well plates) were pre-treated with GLP-1(32-36)amide for 1 hour followed by the stimulation of insulin resistance by the addition of cAMP (10 microM)/dexamethasone ([…])/sodium lactate (2 mM) in glucose-free DMEM without phenol red. […] The readings were then normalized to total protein content determined from whole-cell lysates.

diet-induced obese mice = experiment: Intraperitoneal glucose tolerance test (ipGTT); assay type: in vivo, mouse; settings: glucose 2 g/kg BW ip, overnight fasted, VHFD 24 weeks
Procedure: FIGS. 5C-D are a pair of line graphs Plasma glucose levels (FIG. 5C) and (FIG. 5D) Plasma insulin levels after an intraperitoneal glucose administration ([…] BW ip) in overnight fasted mice fed in VHFD for 24-weeks and 16-weeks of continuous infusions of vehicle or GLP-1(32-36)amide. ***p<4E-03 vehicle vs. GLP-1(32-36)amide, *p<0.01 vehicle vs. GLP-1(32-36)amide, **p<0.004 vehicle vs. GLP-1(32-36)amide, *****p<1.7E-05 vehicle vs. GLP-1(32-36)amide, ****p<6.7 E-04 vehicle vs. GLP-1(32-36)amide.
Mice were maintained in a normal light/dark cycle according to the standard protocols of the MGH Animal Care and Use Committee. Mice were tested with age matched or litter mate controls and 6 mice per group are required. […] The following morning the mice were prepared for the glucose tolerance test: animals were weighed, the tail was nicked with a fresh razor blade by a horizontal cut of the very end, ˜35 to 50 microliters of blood is massaged from the tail to an eppendorf tube which is immediately placed on ice, baseline blood glucose is measured by the glucose oxidase method using a Glucometer Elite glucometer, and 2 grams/kg body weight of 20% D-glucose is drawn up in a Beckton Dickenson D 29 gage ½″ insulin syringe (one unit of D-glucose for every gram of body weight). Animals were then transferred to individually labeled 1000 cc cardboard soup cups with the lid liners removed.
Following animal preparation, glucose was injected into the intraperitoneal cavity. At 10, 20, 30, 60, 120, and 140 minutes blood glucose is sampled from the tail of each mouse by gently massaging a small drop of blood onto the glucometer strip. Glucose injections and blood glucose sampling is timed to take approximately the same amount of time per animal (i.e. 25 animals are injected in 12 minutes and blood glucose sampling of those same 25 animals should also take about 12 minutes) so that the sample times are accurate for each animal.

[2] = Plasma peptide concentrations by LC-MS after continuous infusion; assay type: in vivo, mouse
Procedure: (§1) Mice were given single i.v. injections of the propeptide, GLP-1(9-36)amide and blood samples were taken at times 2, 5, and 10 min. Plasma was assayed for the presence of GLP-1(9-36)amide, GLP-1(28-36)amide, and GLP-1(32-36)amide by electron spray mass spectrometry (ES-MS. Pooled plasma samples collected after a 28 day continuous infusion of GLP-1(9-36)amide or GLP-1(28-36)amide in mice were assayed for peptide concentrations by liquid chromatography mass spectrometry (LC-MS).

[3] = Mass spectrometry of mouse plasma after i.v. injection of GLP-1(9-36)amide; assay type: in vivo
Procedure: FIG. 7B is a line graph showing the results of experiments involving intravenous push injection of GLP-1(9-36)amide, 32-36 amide, and […] into mice, collecting blood plasma at 2, 5, and 10 min, and analyzing the peptide profiles by liquid chromatography-mass spectrometry (LC-MS). Relative amounts of peptides at times indicated are shown. Y-axis, arbitrary units
as §1

[4] = pooled mouse plasma after four weeks infusion

| Substance | glucose production (formation) [1] | glycemic response in ipGTT (diet-induced obese mice; 16 weeks infusion (FIG. 5C)) | insulin response in ipGTT (diet-induced obese mice; 16 weeks infusion (FIG. 5D)) | level at time molar at 672 h ([2]; mouse, plasma, 2.0 mg/ml in the osmopump, four weeks infusion, read-out: plasma levels of GLP-1(28-36)amide in mice infused with GLP-1(28-36)amide) | plasma levels of GLP-1(28-36)amide in mice infused with GLP-1(9-36)amide [2, 4] | presence of nona and pentapeptides in plasma after injection of GLP-1(9-36)amide ([3]; mouse plasma 2 min after i.v. injection, mass spectrometry) | conversion of GLP-1(9-36)amide to the nona and pentapeptides in the circulation ([3]; mouse plasma, i.v. pulse injection) | plasma concentration of GLP-1(9-36)amide during its continuous infusion [2, 4] |
| --- | --- | --- | --- | --- | --- | --- | --- | --- |
| FIAWLVKGR-NH2 [GLP-1(28-36)amide, FIAWLVKGRamide] | dose-dependently suppressed | normal glycemic response | strong insulin response | ~0.24 nM | ~0.1 nM | – | – | – |
| GLP-1(9-36)amide | – | – | – | – | – | readily detected | rapidly converted | not detectable |
